Experimental data: article PMC7156612, “Olinciguat, an Oral sGC Stimulator, Exhibits Diverse Pharmacology Across Preclinical Models of Cardiovascular, Metabolic, Renal, and Inflammatory Disease” (Frontiers in Pharmacology, 2020)
Read-outs that look alike come from different tables or passages of the source.

How the values were obtained:
[1] = parameters: method as in Mittleman et al., 2017; details: healthy human subjects, ref Mittleman et al., 2017, cited from earlier work
[2] = Olinciguat plasma concentration in hemodynamic study (pooled Wistar and SHR); assay type: in vivo, rat; details: for concentration at 1 h: male, Wistar and SHR (spontaneously hypertensive rat), pooled, rat, plasma, oral, mean and SEM of 6 animals (n=3 Wistar, n=3 SHR), read-out: average plasma concentration 1 h after dosing on Day 4
Protocol: Blood from i.v. and p.o. dosed rats was collected at 16 timepoints (2 groups of rats, 8 timepoints per group) over 24 h. Samples were collected into potassium ethylenediamine tetraacetic acid (K2EDTA) tubes, centrifuged (3,500 rpm for 10 min) to yield plasma. In the pharmacokinetic studies and in all in vivo studies, olinciguat plasma concentrations were determined by LC-MS/MS. Pharmacokinetic (PK) parameters were calculated by noncompartmental analysis using sparse sampling in Phoenix® WinNonLin® v.6.3 (Certara, Princeton, NJ).
Spontaneously hypertensive rats (SHRs) (n=6, male, 230–250 g, 14 weeks of age) and Wistar rats (n=6, male, 230–250 g, 12 weeks of age) were implanted with telemetry transmitters as described above. Olinciguat was formulated as a suspension in a vehicle containing 0.5% methylcellulose and 0.2% Tween. Rats were p.o. dosed with a dosing volume of 5 ml/kg. In a weekly-dose escalation design, rats were administered vehicle (week 1), olinciguat 1 mg/kg (week 2), 3 mg/kg (week 3), and 10 mg/kg (week 4). For each dose level, rats were dosed once daily (QD) for 4 days. Using plasma from tail vein, olinciguat plasma concentrations were determined at 1, 6, and 24 h post-dose on day 4 and reported as the mean from Wistar (n=3) and SHR (n=3). Hemodynamics were recorded hourly during a 24-h baseline period and over the first 3 days of dosing.

[3] = Plasma protein binding (equilibrium dialysis), rat; assay type: in vitro ADME; details: both sexes, Sprague Dawley, 1 and 10 μM, equilibrium dialysis 18 h, no gender difference, read-out: bound to plasma proteins
Protocol: (§1) Concentrated (10 mM) DMSO stock solutions of olinciguat were diluted to 1 and 10 μM in 2.5 ml of rat (male and female Sprague Dawley) and human plasma. Concentrated [^14C]-labeled olinciguat (1 μl,1 mCi/ml stock concentration) was spiked into each sample and mixed by vortexing. Triplicate 500 μl aliquots of plasma containing [^14C]-labeled olinciguat were transferred to a Rapid Equilibrium Dialysis system and dialyzed (molecular weight cut-off ~8000 Da) against 500 μl of phosphate-buffered saline (PBS) at room temperature for 18 h. Radioactivity of [^14C]-labeled olinciguat in PBS and plasma samples was measured using liquid scintillation counting.

[4] = Rat post-myocardial infarction model; assay type: in vivo; details: male, Sprague-Dawley, rat, plasma, oral; MI rats, 30 mg/kg/day in chow; read-out: olinciguat plasma concentration at week 8
Protocol: (§2) Male Sprague-Dawley rats (n = 24, 270–330 g) were studied. MI was induced by permanent ligation of the left anterior descending (LAD) coronary artery. Briefly, after anesthesia with 5% isoflurane, rats were intubated and ventilated using a small animal ventilator (Model 683, Harvard Apparatus). Surgery was performed under sterile conditions. Briefly, the heart was exposed through left thoracotomy, the pericardium was incised, and the LAD coronary artery was ligated with 4-0 silk suture (Ethicon, Inc.). The lungs were inflated, and the chest wall was closed in three layers. Approximately 100 µl of 0.25% marcaine was applied directly to the edge of the skin incision. Long-acting buprenorphine (1 mg/kg/day, s.c.) was administered after the surgery for postoperative pain relief. Sham-operated rats underwent the same procedure without ligation of the LAD.
(§3) Treatment was initiated within 24 h following surgery. The Sham and MI control groups were maintained on chow for the entire 8-week treatment period. Rats in the MI + olinciguat group received olinciguat in chow at the targeted dose of 30 mg/kg/day for the entire 8-week treatment period. Ejection fraction (EF) was measured at week 8 by echocardiography using the long axis view of the left ventricle in B-mode.
(§4) In the post-MI study, data were analyzed by one-way ANOVA, followed by Dunnett's multiple comparison to the MI group.

[5] = tested on: Sprague-Dawley rats with LAD ligation (post-MI); assay: Rat post-myocardial infarction model; assay type: in vivo; details: 30 mg/kg/day, total plasma concentration x 1.0% free
Protocol: as §2, §3, §4

[6] = Mouse TNFα-induced model of vascular inflammation; assay type: in vivo; details: male, C57BL/6, mouse, plasma, po; mice, 10 mg/kg p.o., at euthanasia; read-out: plasma concentration of olinciguat
Protocol: (§5) Male C57BL/6 mice (n=30, 22 g, 8 weeks) were studied. The TNFα/olinciguat group of mice (n=10) was administered 10 mg/kg olinciguat p.o., formulated in 0.1 ml 100% PEG, followed byintraperitoneal (i.p.) injection of 50 ng of mouse TNFα formulated in 0.5 ml pyrogen-free 0.9% NaCl solution one hour later. The TNFα/vehicle control group of mice (n=10) was treated with p.o. vehicle, followed by i.p. injection of 50 ng of mouse TNFα after one h. A naïve, non-treated control group of mice (n=10) was included in the study. […] Plasma levels of olinciguat were determined by LCMS. Plasma samples were diluted 1:300 for determination of sL-selectin, sP-selectin, sE-selectin, and sICAM-1 by ELISA.
(§6) In the vascular inflammation model, data were analyzed by one-way ANOVA, followed by Dunnett's multiple comparison to the TNFα-vehicle control.

[7] = tested on: C57BL/6 mice treated with TNFα; assay: Mouse TNFα-induced model of vascular inflammation; assay type: in vivo; details: 10 mg/kg, total plasma concentration x 1.7% free
Protocol: as §5, §6

[8] = Plasma protein binding (equilibrium dialysis), human; assay type: in vitro ADME; details: 1 and 10 μM, equilibrium dialysis 18 h, read-out: bound to plasma proteins (converted)
Protocol: as §1

Olinciguat concentration (free) ([2]; 10 mg/kg, pooled samples from Wistar and SHR, total plasma concentration x 1.0% free): 1.6–3.3 nM^a,e
concentration at 1 h ([2]; 1 mg/kg p.o. QD): 57.3 ± 38.7 nM
concentration at 1 h ([2]; 3 mg/kg p.o. QD): 132 ± 30 nM
concentration at 1 h ([2]; 10 mg/kg p.o. QD): 245 ± 86 nM
fraction unbound at 18 h [3]: 0.01
concentration at 8 weeks [4]: 167 ± 11 nM
Olinciguat concentration (free) [5]: 1.6–1.8 nM^e
concentration at 5 h [6]: 544 ± 61 nM
Olinciguat concentration (free) [7]: 8.2–10.2 nM^f
fraction unbound at 18 h [8]: 0.0199
SMILES: NC(=O)[C@](O)(CNc1nc(-c2cc(-c3ccon3)n(Cc3ccccc3F)n2)ncc1F)C(F)(F)F [olinciguat, (R)-3,3,3-trifluoro-2-(((5-fluoro-2-(1-(2-fluorobenzyl)-5-(isoxazol-3-yl)-1H-pyrazol-3-yl)pyrimidin-4-yl)amino)methyl)-2-hydroxypropanamide]
terminal-phase half-life ([1]; repeat dosing with oral tablets): ~ 30 h
renal clearance, percent of apparent total body clearance [CL/F] [1]: ≤ 0.3%
